Measurements: patent US20240158348A1, “HERBICIDAL CYCLIC AMIDES N-SUBSTITUTED WITH A HALOALKYLSULFONYLANILIDE GROUP” (FMC Corporation, priority 2021, published 2024)

Tests used:
Format in all cases: in vivo
[1] = test system: kochia (Bassia scoparia); experiment: Test C preemergence, kochia; conditions: 0 is no effect, 100 is complete control
Description: (§1) Seeds of plant species selected from blackgrass (Alopecurus myosuroides), corn (Zea mays), foxtail, giant (giant foxtail, Setaria faberi), goosegrass (Eleusine indica), kochia (Bassia scoparia), oat, wild (wild oat, Avena fatua), pigweed, palmer (palmer amaranth, Amaranthus palmeri), ragweed (common ragweed, Ambrosia artemisiifolia), ryegrass, Italian (Italian ryegrass, Lolium multiflorum), soybean (Glycine max) and wheat (Triticum aestivum) were planted into a blend of loam soil and sand and treated preemergence with a directed soil spray using test chemicals formulated in a non-phytotoxic solvent mixture which included a surfactant.
(§2) At the same time, plants selected from these crop and weed species and also galium (catchweed bedstraw, Galium aparine) and horseweed (Erigeron canadensis) were planted in pots containing the same blend of loam soil and sand and treated with postemergence applications of test chemicals formulated in the same manner. Plants ranged in height from 2 to 10 cm and were in the one- to two-leaf stage for the postemergence treatment. Treated plants and untreated controls were maintained in a greenhouse for 10 or 12 days, after which time all treated plants were compared to untreated controls and visually evaluated for injury. Plant response ratings, summarized in Table A, are based on a 0 to 100 scale where 0 is no effect and 100 is complete control. A dash (-) response means no test result.

[2] = test system: goosegrass (Eleusine indica); experiment: Test C postemergence, goosegrass; conditions: visual injury, 0 to 100 scale (0 no effect, 100 complete control)
Description: as §1, §2

[3] = test system: foxtail, giant (giant foxtail, Setaria faberi); experiment: Test C preemergence, giant foxtail; conditions: 0 is no effect, 100 is complete control
Description: as §1, §2

[4] = test system: wheat (Triticum aestivum); experiment: Test C postemergence, wheat; conditions: visual injury, 0 to 100 scale (0 no effect, 100 complete control)
Description: as §1, §2

[5] = test system: sedge, umbrella (small-flower umbrella sedge, Cyperus difformis); experiment: Test D flooded paddy test, umbrella sedge; parameters: key: 0 = no effect, 100 = complete control; conditions: 250 g ai/ha, Flood; applied to paddy water at 2-leaf stage; visual rating after 13 days; scale 0 (no effect) to 100 (complete control)
Procedure: (§3) Plant species in the flooded paddy test selected from barnyardgrass (Echinochloa crusgalli), ducksalad (Heteranthera limosa), rice (Oryza sativa), and sedge, umbrella (small-flower umbrella sedge, Cyperus difformis) were grown to the 2-leaf stage for testing. At time of treatment, test pots were flooded to 3 cm above the soil surface, treated by application of test compounds directly to the paddy water, and then maintained at that water depth for the duration of the test. Treated plants and controls were maintained in a greenhouse for 13 days, after which time all species were compared to controls and visually evaluated. Plant response ratings, summarized in Table B, are based on a scale of 0 to 100 where 0 is no effect and 100 is complete control. A dash (-) response means no test result.

[6] = test system: soybean (Glycine max); experiment: Test C postemergence, soybean; conditions: visual injury, 0 to 100 scale (0 no effect, 100 complete control)
Description: as §1, §2

[7] = test system: oat, wild (wild oat, Avena fatua); experiment: Test C postemergence, wild oat; conditions: visual injury, 0 to 100 scale (0 no effect, 100 complete control)
Description: as §1, §2

[8] = test system: foxtail, giant (giant foxtail, Setaria faberi); experiment: Test C postemergence, giant foxtail; conditions: visual injury, 0 to 100 scale (0 no effect, 100 complete control)
Description: as §1, §2

[9] = test system: ryegrass, Italian (Italian ryegrass, Lolium multiflorum); experiment: Test C postemergence, Italian ryegrass; conditions: visual injury, 0 to 100 scale (0 no effect, 100 complete control)
Description: as §1, §2

[10] = test system: corn (Zea mays); experiment: Test C preemergence, corn; conditions: 0 is no effect, 100 is complete control
Description: as §1, §2

[11] = test system: ragweed (common ragweed, Ambrosia artemisiifolia); experiment: Test C preemergence, ragweed; conditions: 0 is no effect, 100 is complete control
Description: as §1, §2

[12] = test system: oat, wild (wild oat, Avena fatua); experiment: Test C preemergence, wild oat; conditions: 0 is no effect, 100 is complete control
Description: as §1, §2

[13] = test system: goosegrass (Eleusine indica); experiment: Test C preemergence, goosegrass; conditions: 0 is no effect, 100 is complete control
Description: as §1, §2

[14] = test system: pigweed, palmer (palmer amaranth, Amaranthus palmeri); experiment: Test C preemergence, palmer amaranth; conditions: 0 is no effect, 100 is complete control
Description: as §1, §2

[15] = test system: ducksalad (Heteranthera limosa); experiment: Test D flooded paddy test, ducksalad; parameters: key: 0 = no effect, 100 = complete control; conditions: 250 g ai/ha, Flood; applied to paddy water at 2-leaf stage; visual rating after 13 days; scale 0 (no effect) to 100 (complete control)
Procedure: as §3

[16] = test system: pigweed, palmer (palmer amaranth, Amaranthus palmeri); experiment: Test C postemergence, palmer amaranth; conditions: visual injury, 0 to 100 scale (0 no effect, 100 complete control)
Description: as §1, §2

[17] = test system: wheat (Triticum aestivum); experiment: Test C preemergence, wheat; conditions: 0 is no effect, 100 is complete control
Description: as §1, §2

[18] = test system: ragweed (common ragweed, Ambrosia artemisiifolia); experiment: Test C postemergence, ragweed; conditions: visual injury, 0 to 100 scale (0 no effect, 100 complete control)
Description: as §1, §2

[19] = test system: kochia (Bassia scoparia); experiment: Test C postemergence, kochia; conditions: visual injury, 0 to 100 scale (0 no effect, 100 complete control)
Description: as §1, §2

[20] = test system: corn (Zea mays); experiment: Test C postemergence, corn; conditions: visual injury, 0 to 100 scale (0 no effect, 100 complete control)
Description: as §1, §2

[21] = test system: galium (catchweed bedstraw, Galium aparine); experiment: Test C postemergence, galium; conditions: visual injury, 0 to 100 scale (0 no effect, 100 complete control)
Description: as §1, §2

[22] = test system: rice (Oryza sativa); experiment: Test D flooded paddy test, rice; parameters: key: 0 = no effect, 100 = complete control; conditions: 250 g ai/ha, Flood; applied to paddy water at 2-leaf stage; visual rating after 13 days; scale 0 (no effect) to 100 (complete control)
Procedure: as §3

[23] = test system: ryegrass, Italian (Italian ryegrass, Lolium multiflorum); experiment: Test C preemergence, Italian ryegrass; conditions: 0 is no effect, 100 is complete control
Description: as §1, §2

[24] = test system: barnyardgrass (Echinochloa crusgalli); experiment: Test D flooded paddy test, barnyardgrass; parameters: key: 0 = no effect, 100 = complete control; conditions: 250 g ai/ha, Flood; applied to paddy water at 2-leaf stage; visual rating after 13 days; scale 0 (no effect) to 100 (complete control)
Procedure: as §3

[25] = test system: blackgrass (Alopecurus myosuroides); experiment: Test C postemergence, blackgrass; conditions: visual injury, 0 to 100 scale (0 no effect, 100 complete control)
Description: as §1, §2

[26] = test system: horseweed (Erigeron canadensis); experiment: Test C postemergence, horseweed; conditions: visual injury, 0 to 100 scale (0 no effect, 100 complete control)
Description: as §1, §2

[27] = test system: soybean (Glycine max); experiment: Test C preemergence, soybean; conditions: 0 is no effect, 100 is complete control
Description: as §1, §2

Q: Which “Plant response rating (0 to 100 scale), Kochia” value ([1]; 31 g ai/ha Preemergence) does the source give for `Cc1c(N2CCC(OC3CCC3)C2=O)cc(N(COC(=O)C(C)(C)C)S(=O)(=O)C(F)(F)F)c(C)c1C` (centres unmarked) [Compound 51] here?
A: The value was 30.

Q: What about the “Plant response rating (0 to 100 scale), Kochia” value ([1]; 125 g ai/ha Preemergence) of the same compound?
A: The value was 80.

Q: What about the “Goosegrass plant response rating” value ([2]; 31 g ai/ha Postemergence) of the same compound?
A: The value was 0.

Q: And the “Goosegrass plant response rating” value ([2]; 125 g ai/ha Postemergence)?
A: Its value is 20.

Q: And the “Plant response rating (0 to 100 scale), Foxtail, Giant” value ([3]; 31 g ai/ha Preemergence)?
A: The value was 10.

Q: And the “Plant response rating (0 to 100 scale), Foxtail, Giant” value ([3]; 125 g ai/ha Preemergence)?
A: Its value is 90.

Q: What about the “Wheat plant response rating” value ([4]; 31 g ai/ha Postemergence) of the same compound?
A: The value was 20.

Q: What about the “Wheat plant response rating” value ([4]; 125 g ai/ha Postemergence) of the same compound?
A: Its value is 70.

Q: What about the “Plant response rating, Sedge, Umbrella” value [5] of the same compound?
A: The value was 90.

Q: What about the “Soybean plant response rating” value ([6]; 31 g ai/ha Postemergence) of the same compound?
A: Its value is 30.

Q: And the “Soybean plant response rating” value ([6]; 125 g ai/ha Postemergence)?
A: Its value is 60.

Q: What about the “Oat, Wild plant response rating” value ([7]; 31 g ai/ha Postemergence) of the same compound?
A: The value was 0.

Q: What about the “Oat, Wild plant response rating” value ([7]; 125 g ai/ha Postemergence) of the same compound?
A: The value was 30.

Q: What about the “Foxtail, Giant plant response rating” value ([8]; 31 g ai/ha Postemergence) of the same compound?
A: The value was 0.

Q: And the “Foxtail, Giant plant response rating” value ([8]; 125 g ai/ha Postemergence)?
A: The value was 40.

Q: And the “Ryegrass, Italian plant response rating” value ([9]; 31 g ai/ha Postemergence)?
A: Its value is 20.

Q: What about the “Ryegrass, Italian plant response rating” value ([9]; 125 g ai/ha Postemergence) of the same compound?
A: The value was 50.

Q: What about the “Plant response rating (0 to 100 scale), Corn” value ([10]; 31 g ai/ha Preemergence) of the same compound?
A: Its value is 0.

Q: What about the “Plant response rating (0 to 100 scale), Corn” value ([10]; 125 g ai/ha Preemergence) of the same compound?
A: Its value is 40.

Q: What about the “Plant response rating (0 to 100 scale), Ragweed” value ([11]; 31 g ai/ha Preemergence) of the same compound?
A: Its value is 0.

Q: And the “Plant response rating (0 to 100 scale), Ragweed” value ([11]; 125 g ai/ha Preemergence)?
A: Its value is 70.

Q: What about the “Plant response rating (0 to 100 scale), Oat, Wild” value ([12]; 31 g ai/ha Preemergence) of the same compound?
A: Its value is 20.

Q: What about the “Plant response rating (0 to 100 scale), Oat, Wild” value ([12]; 125 g ai/ha Preemergence) of the same compound?
A: The value was 50.

Q: What about the “Plant response rating (0 to 100 scale), Goosegrass” value ([13]; 31 g ai/ha Preemergence) of the same compound?
A: The value was 0.

Q: And the “Plant response rating (0 to 100 scale), Goosegrass” value ([13]; 125 g ai/ha Preemergence)?
A: Its value is 90.

Q: What about the “Plant response rating (0 to 100 scale), Pigweed, Palmer” value ([14]; 31 g ai/ha Preemergence) of the same compound?
A: The value was 20.

Q: And the “Plant response rating (0 to 100 scale), Pigweed, Palmer” value ([14]; 125 g ai/ha Preemergence)?
A: Its value is 60.

Q: What about the “Plant response rating, Ducksalad” value [15] of the same compound?
A: The value was 85.

Q: What about the “Pigweed, Palmer plant response rating” value ([16]; 31 g ai/ha Postemergence) of the same compound?
A: Its value is 10.

Q: What about the “Pigweed, Palmer plant response rating” value ([16]; 125 g ai/ha Postemergence) of the same compound?
A: Its value is 60.

Q: And the “Plant response rating (0 to 100 scale), Wheat” value ([17]; 31 g ai/ha Preemergence)?
A: Its value is 10.

Q: And the “Plant response rating (0 to 100 scale), Wheat” value ([17]; 125 g ai/ha Preemergence)?
A: The value was 60.

Q: What about the “Ragweed plant response rating” value ([18]; 31 g ai/ha Postemergence) of the same compound?
A: Its value is 60.

Q: What about the “Ragweed plant response rating” value ([18]; 125 g ai/ha Postemergence) of the same compound?
A: The value was 80.

Q: And the “Kochia plant response rating” value ([19]; 31 g ai/ha Postemergence)?
A: Its value is 30.

Q: What about the “Kochia plant response rating” value ([19]; 125 g ai/ha Postemergence) of the same compound?
A: Its value is 70.

Q: And the “Corn plant response rating” value ([20]; 31 g ai/ha Postemergence)?
A: Its value is 0.

Q: And the “Corn plant response rating” value ([20]; 125 g ai/ha Postemergence)?
A: Its value is 60.

Q: What about the “Galium plant response rating” value ([21]; 31 g ai/ha Postemergence) of the same compound?
A: The value was 60.

Q: And the “Galium plant response rating” value ([21]; 125 g ai/ha Postemergence)?
A: Its value is 90.

Q: What about the “Plant response rating, Rice” value [22] of the same compound?
A: The value was 10.

Q: What about the “Plant response rating (0 to 100 scale), Ryegrass, Italian” value ([23]; 31 g ai/ha Preemergence) of the same compound?
A: Its value is 40.

Q: What about the “Plant response rating (0 to 100 scale), Ryegrass, Italian” value ([23]; 125 g ai/ha Preemergence) of the same compound?
A: Its value is 100.

Q: And the “Plant response rating, Barnyardgrass” value [24]?
A: The value was 100.

Q: And the “Blackgrass plant response rating” value ([25]; 31 g ai/ha Postemergence)?
A: Its value is 10.

Q: What about the “Blackgrass plant response rating” value ([25]; 125 g ai/ha Postemergence) of the same compound?
A: Its value is 20.

Q: What about the “Horseweed plant response rating” value ([26]; 31 g ai/ha Postemergence) of the same compound?
A: Its value is 60.

Q: And the “Horseweed plant response rating” value ([26]; 125 g ai/ha Postemergence)?
A: The value was 90.

Q: And the “Plant response rating (0 to 100 scale), Soybean” value ([27]; 31 g ai/ha Preemergence)?
A: Its value is 0.

Q: And the “Plant response rating (0 to 100 scale), Soybean” value ([27]; 125 g ai/ha Preemergence)?
A: Its value is 30.
